Experimental data as given in PMC6689897, “Drugging an undruggable pocket on KRAS” (Proceedings of the National Academy of Sciences of the …, 2019).

System: NCI-H358 cells
Assay: 2D proliferation assay
Assay type: cell-based, human
Details: standard 2D culture conditions
Description: 263 (ATCC® CCL-224™; grown in RPMI 10% FCS) and SK-MEL-28 (ATCC® HTB-
264 72™, grown in EMEM 10% FCS). Cell cultures were incubated at 37 °C and 5% CO2 in
265 a humidified atmosphere, with medium change or subcultivation 2-3 times a week.
269 Cells were lysed in 1x lysis buffer (Cell Signaling #9803) and protein concentration
270 normalized to 10µg/µL. Proteins were separated by SDS-Page and transferred to
271 Nitrocellulose membranes (BioRad) according to standard protocols. Membranes were
273 (Milipore #06-182) and Tubulin (Cell Signaling #2144) in 5% BSA in TBST blocking
274 buffer. After primary antibody incubation membranes were incubated with anti-rabbit
275 IgG secondary antibody (Dako #P0448) and detected with ECL (GE Healthcare Life
278 Compound treatment of cells
279 Synthesized or purchased (ARS 1620) compounds were dissolved in 100% DMSO and
280 stored at a concentration of 10mM at -20°C. Compounds were either serially diluted in
281 medium or directly added to reach the intended final concentration. DMSO was added
282 to control reactions as reference to keep the final DMSO concentration in all samples
285 2D proliferation assay: […]
Quantification of living cells […]
291 manufacturer’s recommendation. Luminescence was read in a 2030 VICTOR X5 (Perkin […]
305 were trypsinized, counted and plated in 60 µL culture medium containing 2% FCS […]

Cn1cnc(Cn2ccc3ccc(CNCc4[nH]c5ccccc5c4[C@H]4NC(=O)c5ccc(O)cc54)cc32)c1 [Compound 1]
antiproliferative effect: No antiproliferative effect
